Assay results reported in patent US8551516B2, “Administration of non-oral androgenic steroids to women” (Actavis, Inc., priority 1999, dated 2013).

What was measured:
[1] = Pharmacokinetic study of testosterone transdermal matrix patch in surgically menopausal women: total and free testosterone; format: in vivo, human; settings: 300 mcg/day patch; for concentration at 3.5 day: female, human, serum, time-average change from baseline, mean±SEM
Description: One group had received no estrogen replacement therapy (ERT) for at least one month, the second group was receiving transdermal estadiol (E2) at a dosage of 0.1 mg/day, and the third group was receiving oral conjugated equine estrogens (CEE) at a dosage of 1.25 mg/day. […] The resultant hormone data (mean±SEM) for the three groups of surgically menopausal women participating in the clinical study is summarized in Table 2 below.
It should be noted that the normal range for SHBG levels is 36 to 185 nmol/L using the Endocrine Sciences assay.

[2] = test system: sexual function, mood and well-being; assay: Example 1: 12-week coadministration of oral estrogen and transdermal testosterone, sexual function, mood and well-being; format: in vivo, human; settings: transdermal patch 300 mcg/day twice weekly plus oral Premarin 0.625 to 2.5 mg daily; after 12 weeks; surgically menopausal women
From the text: The duration of coadministration was 12 weeks.

[3] = Estimated testosterone delivery rate for a given increase in free testosterone, power-law regression of FIG. 2; format: in vivo, human
[4] = biological target: T1, sex hormone binding globulin (SHBG) (Homo sapiens, UniProt P04278); settings: adapted from Dunn et al. 1981; human plasma; cited from earlier work
T1 sequence (P04278 30-402): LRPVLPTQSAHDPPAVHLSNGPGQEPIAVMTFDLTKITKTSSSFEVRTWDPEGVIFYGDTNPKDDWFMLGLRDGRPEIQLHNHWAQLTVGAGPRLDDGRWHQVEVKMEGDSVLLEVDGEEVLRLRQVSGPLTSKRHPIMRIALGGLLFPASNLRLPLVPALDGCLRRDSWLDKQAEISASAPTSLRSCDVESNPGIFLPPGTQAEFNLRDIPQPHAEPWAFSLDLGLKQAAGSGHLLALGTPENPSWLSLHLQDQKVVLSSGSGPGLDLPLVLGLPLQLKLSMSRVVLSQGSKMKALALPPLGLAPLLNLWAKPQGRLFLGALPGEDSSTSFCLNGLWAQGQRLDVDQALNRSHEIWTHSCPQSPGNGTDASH

[5] = Example 1: serum hormone levels on the regimen; settings: Example 1 regimen; for bioavailability: female, human, in vivo
Description: The estrogen consisted of conjugated equine estrogen (Premarin® tablets) at a daily dose of 0.625 to 2.5 mg. […] The duration of coadministration was 12 weeks.

[6] = Predicted change in total testosterone, power-law regression of FIG. 1; settings: for concentration at 3.5 day: human, serum, other: transdermal
[7] = Change in FT 1 pg/mL, SHBG 50 nmol/L
[8] = Change in FT 1 pg/mL, SHBG 84 nmol/L
[9] = Change in FT 1 pg/mL, SHBG 100 nmol/L
[10] = Change in FT 1 pg/mL, SHBG 200 nmol/L
[11] = Change in FT 1 pg/mL, SHBG 400 nmol/L
[12] = Change in FT 1 pg/mL, SHBG 600 nmol/L
[13] = Change in FT 1 pg/mL, SHBG 700 nmol/L
[14] = Change in FT 2.5 pg/mL, SHBG 50 nmol/L
[15] = Change in FT 2.5 pg/mL, SHBG 84 nmol/L
[16] = Change in FT 2.5 pg/mL, SHBG 100 nmol/L
[17] = Change in FT 2.5 pg/mL, SHBG 200 nmol/L
[18] = Change in FT 2.5 pg/mL, SHBG 400 nmol/L
[19] = Change in FT 2.5 pg/mL, SHBG 600 nmol/L
[20] = Change in FT 2.5 pg/mL, SHBG 700 nmol/L
[21] = Change in FT 5 pg/mL, SHBG 50 nmol/L
[22] = Change in FT 5 pg/mL, SHBG 84 nmol/L
[23] = Change in FT 5 pg/mL, SHBG 100 nmol/L
[24] = Change in FT 5 pg/mL, SHBG 200 nmol/L
[25] = Change in FT 5 pg/mL, SHBG 400 nmol/L
[26] = Change in FT 5 pg/mL, SHBG 600 nmol/L
[27] = Change in FT 5 pg/mL, SHBG 700 nmol/L
[28] = Change in FT 10 pg/mL, SHBG 50 nmol/L
[29] = Change in FT 10 pg/mL, SHBG 84 nmol/L
[30] = Change in FT 10 pg/mL, SHBG 100 nmol/L
[31] = Change in FT 10 pg/mL, SHBG 200 nmol/L
[32] = Change in FT 15 pg/mL, SHBG 50 nmol/L
[33] = Change in FT 15 pg/mL, SHBG 84 nmol/L
[34] = Change in FT 15 pg/mL, SHBG 100 nmol/L
[35] = Change in FT 15 pg/mL, SHBG 200 nmol/L
[36] = Change in FT 15 pg/mL, SHBG 400 nmol/L
[37] = Change in FT 15 pg/mL, SHBG 600 nmol/L
[38] = Change in FT 15 pg/mL, SHBG 700 nmol/L

SMILES: C[C@]12CC[C@H]3[C@@H](CCC4=CC(=O)CC[C@@]43C)[C@@H]1CC[C@@H]2O [testosterone, (17)-17-Hydroxyandrost-4-en-3-one]
- mean increase in free serum testosterone lower in oral estrogen group than other two groups [1]: approximately 40%
- mean increase in total serum testosterone greater in oral estrogen group than other two groups ([1]; time-averaged change from baseline): approximately 30%
- concentration at 3.5 day ([1]; other: transdermal patch, with Transdermal E2 0.1 mg/day, n=12, read-out: Changes in Free T): 0.0042 ± 0.0007 ng/mL
- concentration at 3.5 day ([1]; other: transdermal patch, with Transdermal E2 0.1 mg/day, n=12, read-out: Changes in Total T): 0.536 ± 0.072 ng/mL
- concentration at 3.5 day ([1]; other: transdermal patch, 300 mcg/day, No ERT, n=19, 3.5 day application, read-out: Changes in Total T): 0.572 ± 0.044 ng/mL
- concentration at 3.5 day ([1]; other: transdermal patch, 300 mcg/day, No ERT, n=19, read-out: Changes in Free T): 0.0046 ± 0.0004 ng/mL
- concentration at 3.5 day ([1]; po, with Oral CEE 1.25 mg/day, n=13, read-out: Changes in Free T): 0.00256 ± 0.0003 ng/mL
- concentration at 3.5 day ([1]; po, with Oral CEE 1.25 mg/day, n=13, read-out: Changes in Total T): 0.708 ± 0.096 ng/mL
- sexual function, mood and well-being in comparison to conjugated equine estrogen alone [2]: improved sexual function, mood and well-being
- Estimated Delivery Rate [3, 7]: 55 µg/day
- Estimated Delivery Rate [3, 8]: 69 µg/day
- Estimated Delivery Rate [3, 9]: 74 µg/day
- Estimated Delivery Rate [3, 10]: 98 µg/day
- Estimated Delivery Rate [3, 11]: 131 µg/day
- Estimated Delivery Rate [3, 12]: 155 µg/day
- Estimated Delivery Rate [3, 13]: 166 µg/day
- Estimated Delivery Rate [3, 14]: 139 µg/day
- Estimated Delivery Rate [3, 15]: 172 µg/day
- Estimated Delivery Rate [3, 16]: 185 µg/day
- Estimated Delivery Rate [3, 17]: 246 µg/day
- Estimated Delivery Rate [3, 18]: 328 µg/day
- Estimated Delivery Rate [3, 19]: 388 µg/day
- Estimated Delivery Rate [3, 20]: 414 µg/day
- Estimated Delivery Rate [3, 21]: 277 µg/day
- Estimated Delivery Rate [3, 22]: 344 µg/day
- Estimated Delivery Rate [3, 23]: 369 µg/day
- Estimated Delivery Rate [3, 24]: 492 µg/day
- Estimated Delivery Rate [3, 25]: 656 µg/day
- Estimated Delivery Rate [3, 26]: 111 µg/day
- Estimated Delivery Rate [3, 27]: 828 µg/day
- Estimated Delivery Rate [3, 28]: 554 µg/day
- Estimated Delivery Rate [3, 29]: 687 µg/day
- Estimated Delivery Rate [3, 30]: 739 µg/day
- Estimated Delivery Rate [3, 31]: 985 µg/day
- Estimated Delivery Rate ([3]; Change in FT 10 pg/mL, SHBG 400 nmol/L): 1313 µg/day
- Estimated Delivery Rate ([3]; Change in FT 10 pg/mL, SHBG 600 nmol/L): 1553 µg/day
- Estimated Delivery Rate ([3]; Change in FT 10 pg/mL, SHBG 700 nmol/L): 1656 µg/day
- Estimated Delivery Rate [3, 32]: 831 µg/day
- Estimated Delivery Rate [3, 33]: 1031 µg/day
- Estimated Delivery Rate [3, 34]: 1108 µg/day
- Estimated Delivery Rate [3, 35]: 1477 µg/day
- Estimated Delivery Rate [3, 36]: 1969 µg/day
- Estimated Delivery Rate [3, 37]: 2330 µg/day
- Estimated Delivery Rate [3, 38]: 2484 µg/day
- K (binding affinity constant for SHBG) [4]: 1600 10^6 Liter/mole
- women with free testosterone level below 6.8 pg/mL [5]: 78%
- women with free testosterone level below 15 pg/mL [5]: 97%
- women with total testosterone levels in excess of 80 ng/dL [5]: 73%
- bioavailability ([5]; women with bioavailable testosterone level below 12.7 ng/dL): 68%
- bioavailability ([5]; women with bioavailable testosterone level below 35 ng/dL): 97%
- Predicted Changes in Total Testosterone [6, 7]: 9 ng/dL
- Predicted Changes in Total Testosterone [6, 8]: 12 ng/dL
- Predicted Changes in Total Testosterone [6, 9]: 14 ng/dL
- Predicted Changes in Total Testosterone [6, 10]: 23 ng/dL
- Predicted Changes in Total Testosterone [6, 11]: 37 ng/dL
- Predicted Changes in Total Testosterone [6, 12]: 49 ng/dL
- Predicted Changes in Total Testosterone [6, 13]: 55 ng/dL
- Predicted Changes in Total Testosterone [6, 14]: 21 ng/dL
- Predicted Changes in Total Testosterone [6, 15]: 31 ng/dL
- Predicted Changes in Total Testosterone [6, 16]: 35 ng/dL
- Predicted Changes in Total Testosterone [6, 17]: 57 ng/dL
- Predicted Changes in Total Testosterone [6, 18]: 92 ng/dL
- Predicted Changes in Total Testosterone [6, 19]: 123 ng/dL
- Predicted Changes in Total Testosterone [6, 20]: 137 ng/dL
- Predicted Changes in Total Testosterone [6, 21]: 43 ng/dL
- Predicted Changes in Total Testosterone [6, 22]: 61 ng/dL
- Predicted Changes in Total Testosterone [6, 23]: 69 ng/dL
- Predicted Changes in Total Testosterone [6, 24]: 113 ng/dL
- Predicted Changes in Total Testosterone [6, 25]: 184 ng/dL
- Predicted Changes in Total Testosterone [6, 26]: 245 ng/dL
- Predicted Changes in Total Testosterone [6, 27]: 273 ng/dL
- Predicted Changes in Total Testosterone [6, 28]: 85 ng/dL
- Predicted Changes in Total Testosterone [6, 29]: 123 ng/dL
- Predicted Changes in Total Testosterone [6, 30]: 139 ng/dL
- Predicted Changes in Total Testosterone [6, 31]: 226 ng/dL
- Predicted Changes in Total Testosterone [6, 32]: 128 ng/dL
- Predicted Changes in Total Testosterone [6, 33]: 184 ng/dL
- Predicted Changes in Total Testosterone [6, 34]: 208 ng/dL
- Predicted Changes in Total Testosterone [6, 35]: 339 ng/dL
- Predicted Changes in Total Testosterone [6, 36]: 553 ng/dL
- Predicted Changes in Total Testosterone [6, 37]: 736 ng/dL
- Predicted Changes in Total Testosterone [6, 38]: 820 ng/dL
- concentration at 3.5 day ([6]; 1313 mcg/day): 3.68 ng/mL
- concentration at 3.5 day ([6]; 1553 mcg/day): 4.9 ng/mL
- concentration at 3.5 day ([6]; 1656 mcg/day): 5.47 ng/mL
- concentration at 3.5 day ([6]; 2484 mcg/day): 8.2 ng/mL
